Measurements published in ChEMBL document CHEMBL3507680, “University of Dundee, Gates Library screen for HepG2 cell viability”.

Experiment: Human HepG2 cell viability assay in 384 well format
Type: toxicity, cell-based
Set-up: dose 125 nL, time 70.5 hour; cytotoxicity at 70.5 h: concentration not given beside the values
Conditions: HepG2 cells, read-out: Inhibition

SMILES | cytotoxicity at 70.5 h [%]
CN1C(=O)CC(C(=O)O)C12CCN(Cc1ccc(F)c(Cl)c1)CC2 (stereo not drawn) | 0.558
O=C1NCC2(CCCN(C(=O)c3ccc4c(c3)CCO4)C2)O1 (stereo not drawn) | -4.91
N#Cc1cccc(C(=O)N2CCC3(CCC(=O)N(C4CC4)C3)CC2)c1 | 6.81
CCc1nc(NC2CC(=O)N(CC3CCCCC3)C2)ncc1C (stereo not drawn) | -8.17
Cc1ccc(N2CC[C@@]3(O)CCN(S(C)(=O)=O)C[C@H]3C2)nn1 | 6.8
Cc1n[nH]c(C)c1-c1c(C#N)c(N)nc2c1CCc1[nH]ccc1-2 | -3.53
CCN1CCC(CC(=O)NCC(O)c2cccc(OC)c2)CC1 (stereo not drawn) | -6.22
C=C(C)CN1CCC(n2cc(C3CCCC3)nn2)CC1 | -2.5
Cc1cc(C(=O)NCC2CCS(=O)(=O)C2)ccc1NC(=O)c1ccco1 (stereo not drawn) | 2.82
O=S1(=O)C[C@@H]2[C@H](C1)N(Cc1cc(Cl)cc(Cl)c1)CCN2CCO | -1.4
CCOC(=O)c1coc(N2CCN(C(=O)c3cccc(OC)c3)CC2)n1 | -8.88
COc1cccc(CNC(=O)C(C)n2ccnc2C(C)C)c1OC (stereo not drawn) | 23.8
CN(Cc1cc2n(n1)CCNC2)Cc1n[nH]c2c1CCCCC2 | -1.36
CN(Cc1csc(-c2ccccc2)n1)Cc1ncccc1C(=O)O | 11.5
COC(=O)CNC(=O)c1cn(Cc2ccccc2F)nn1 | -5.61
COc1ccc(CN2CC[C@@H](N)[C@@H](OC)C2)cc1Cn1cncn1 | -6.47
COc1ccc(NC(=O)CCN2CC=C(c3cnn(C)c3)CC2)c(C)c1 | 2.12
CN(Cc1cc(C(C)(C)C)n[nH]1)C(=O)CCC(=O)NC1CCCC1 | -9.2
CCCN(CCO)C(=O)c1cc(COc2ccc3c(c2)CCCC3)on1 | 11.2
O=C(CCC1CCN(C(=O)c2cc[nH]c2)CC1)NCc1cccc(Cl)c1 | -9.67
CCC(C)N(Cc1ccsc1)C(=O)c1ccc(CO)cc1 (stereo not drawn) | -0.23
O=C(O)COc1ccc(Cl)cc1CN1CCC2(CCOCC2)CC1 | 2.03

SMILES | cytotoxicity at 70.5 h [%]
CSCC[C@H](NC(C)=O)C(=O)N(C)Cc1ccc(-n2cccn2)cc1 | 23.9
NCC1CN(C(=O)Cn2ncc(N3CCCCC3)cc2=O)CCO1 (stereo not drawn) | -2.61
CN(CCCc1nccn1C)C(=O)C1CCN(C(=O)C2CC2)CC1 | 0.477
Cc1cccc(CNCC2(O)CCCN(CC3CCCCC3)C2=O)n1 (stereo not drawn) | -5.28
CC(=O)c1cccc(-c2c[nH]c(C)n2)c1 | -7.11
Cc1nc(CNC(=O)c2cc(Cn3ccnc3C(C)C)[nH]n2)sc1C | -14.3
CCC(CO)N(Cc1ccccn1)C(=O)c1ccc(C)c(Cl)c1 (stereo not drawn) | -5.65
COc1cccc2c1OCC(CNc1cc(N)nc(SC)n1)C2 (stereo not drawn) | -8.3
Cc1cnc(NC(=O)c2cccc(CN(C)Cc3ccno3)c2)s1 | -4.32
c1cnc2ccc(C[C@@H]3CC[C@H](CN4CCCOCC4)O3)cc2c1 | -10.1
CCSc1ncc(CN2CCN(c3ncc(C)c(N)n3)CC2)cn1 | -9.95
CN(CCc1ccccc1)c1cnn(Cc2ccccn2)c(=O)c1 | -4.29
O=C(Nc1ccccc1CCO)c1cccc(CN2CC[C@H](O)C2)c1 | -8.22
CN(Cc1csc(-c2cccs2)n1)C(=O)CCn1ccc(=O)[nH]c1=O | 10.9
COc1ccc2c(=O)n(CC3CCCCN3C)ccc2c1OC (stereo not drawn) | -4.5
Cc1cccc(C(C(=O)N2CC(c3cccnc3)C2)N(C)C)c1 (stereo not drawn) | -0.966
CCN(C)C(=O)c1ccc(N(C)Cc2cc(-c3cccnc3)no2)nc1 | 0.809
CCO[C@H]1CN(C)C[C@@H]1NC(=O)c1cc(C)nc2c(C)c(C)ccc12 | -6.51
CC(C)c1cc(C(=O)N2CCC3(CC2)c2ccccc2[C@@H](N)[C@@H]3O)cs1 | -10.7
O=C(O)CSc1nnc(-c2ccn[nH]2)n1-c1ccccc1C(F)(F)F | -3.95
CCC1(C(=O)O)CCCN(C(=O)c2ccc(O)c(Cl)c2)C1 (stereo not drawn) | -4.39
